In brackets after ≈: the same amount, converted by molar mass.
Assays:
Type in all cases: functional
IGROV-1 = experiment: Growth inhibition of Homo sapiens (human) IGROV1 cells at 10 uM after 48 hr by SRB assay; settings: IGROV-1, 48 h, read-out: GI
NCI-H23 = experiment: Growth inhibition of Homo sapiens (human) NCI-H23 cells at 10 uM after 48 hr by SRB assay; settings: NCI-H23, 48 h, read-out: GI
HCC 2998 [1] = experiment: Growth inhibition of Homo sapiens (human) HCC2998 cells at 10 uM after 48 hr by SRB assay; settings: HCC 2998, 48 h, read-out: GI
SNB-19 [2] = experiment: Anticancer activity against Homo sapiens (human) SNB19 cells after 48 hr by SRB assay; settings: SNB-19, 48 h
UO-31 = experiment: Anticancer activity against Homo sapiens (human) UO31 cells after 48 hr by SRB assay; settings: UO-31, 48 h
786-0 = experiment: Anticancer activity against Homo sapiens (human) 786-0 cells after 48 hr by SRB assay; settings: 786-0, 48 h
KM12 = experiment: Anticancer activity against Homo sapiens (human) KM12 cells after 48 hr by SRB assay; settings: KM12, 48 h
HL-60(TB) = experiment: Anticancer activity against Homo sapiens (human) HL-60(TB) cells after 48 hr by SRB assay; settings: HL-60, 48 h
NCI-H460 = experiment: Growth inhibition of Homo sapiens (human) NCI-H460 cells at 10 uM after 48 hr by SRB assay; settings: NCI-H460, 48 h, read-out: GI
HCT-15 = experiment: Growth inhibition of Homo sapiens (human) HCT15 cells at 10 uM after 48 hr by SRB assay; settings: HCT-15, 48 h, read-out: GI
HCC 2998 [3] = experiment: Anticancer activity against Homo sapiens (human) HCC2998 cells after 48 hr by SRB assay; settings: HCC 2998, 48 h
MOLT-4 = experiment: Anticancer activity against Homo sapiens (human) MOLT4 cells after 48 hr by SRB assay; settings: MOLT-4, 48 h
Pseudomonas aeruginosa = experiment: Antimicrobial activity against Pseudomonas aeruginosa ATCC 10145 after 48 hr by two-fold serial broth dilution method; settings: ATCC 10145, 48 h
Hs-578T = experiment: Anticancer activity against Homo sapiens (human) Hs 578T cells after 48 hr by SRB assay
OVCAR-4 = experiment: Anticancer activity against Homo sapiens (human) OVCAR4 cells after 48 hr by SRB assay; settings: OVCAR-4, 48 h
NCI-H522 = experiment: Anticancer activity against Homo sapiens (human) NCI-H522 cells after 48 hr by SRB assay; settings: NCI-H522, 48 h
DU-145 = experiment: Anticancer activity against Homo sapiens (human) DU145 cells after 48 hr by SRB assay; settings: DU-145, 48 h
HCT-116 = experiment: Growth inhibition of Homo sapiens (human) HCT116 cells at 10 uM after 48 hr by SRB assay; settings: HCT-116, 48 h, read-out: GI
T47D = experiment: Anticancer activity against Homo sapiens (human) T47D cells after 48 hr by SRB assay
A549 = experiment: Anticancer activity against Homo sapiens (human) A549/ATCC cells after 48 hr by SRB assay; settings: A549, 48 h
SNB-19 [4] = experiment: Growth inhibition of Homo sapiens (human) SNB19 cells at 10 uM after 48 hr by SRB assay; settings: SNB-19, 48 h, read-out: GI
ACHN = experiment: Anticancer activity against Homo sapiens (human) ACHN cells after 48 hr by SRB assay
OVCAR-3 = experiment: Anticancer activity against Homo sapiens (human) OVCAR3 cells after 48 hr by SRB assay; settings: OVCAR-3, 48 h
SR = experiment: Anticancer activity against Homo sapiens (human) SR cells after 48 hr by SRB assay
U-251 = experiment: Growth inhibition of Homo sapiens (human) U251 cells at 10 uM after 48 hr by SRB assay; settings: U-251, 48 h, read-out: GI
SK-MEL-28 = experiment: Anticancer activity against Homo sapiens (human) SK-MEL-28 cells after 48 hr by SRB assay; settings: SK-MEL-28, 48 h
K562 = experiment: Anticancer activity against Homo sapiens (human) K562 cells after 48 hr by SRB assay; settings: K562, 48 h
MDA-MB-468 = experiment: Growth inhibition of Homo sapiens (human) MDA-MB-468 cells at 10 uM after 48 hr by SRB assay; settings: MDA-MB-468, 48 h, read-out: GI
[5] = read-out: LC50 (the source's name)

Compound: COc1ccc(OC)c(/C=C/c2nnc(S)n2-c2ccc(Cl)cc2)c1
- inhibition of growth at 10 µM (IGROV-1): 59.9%
- inhibition of growth at 10 µM (NCI-H23): 51.3%
- inhibition of growth at 10 µM (HCC 2998 [1]): 54.4%
- GI50 (SNB-19 [2]): 12.7 µM
- TGI (SNB-19 [2]): > 100 µM
- CC50 (SNB-19 [2]; [5]): > 100 µM
- GI50 (UO-31): 2250 nM
- LC50 (50% lethal concentration) (UO-31): > 100 µM
- GI50 (786-0): 7.17 µM
- TGI (786-0): > 100 µM
- CC50 (786-0; [5]): > 100 µM
- GI50 (KM12): 4.02 µM
- TGI (KM12): > 100 µM
- CC50 (KM12; [5]): > 100 µM
- GI50 (HL-60(TB)): 3.57 µM
- TGI (HL-60(TB)): > 100 µM
- CC50 (HL-60(TB); [5]): > 100 µM
- inhibition of growth at 10 µM (NCI-H460): 61.1%
- inhibition of growth at 10 µM (HCT-15): 58.8%
- GI50 (HCC 2998 [3]): 13.3 µM
- TGI (HCC 2998 [3]): > 100 µM
- CC50 (HCC 2998 [3]; [5]): > 100 µM
- GI50 (MOLT-4): 7.74 µM
- TGI (MOLT-4): > 100 µM
- CC50 (MOLT-4; [5]): > 100 µM
- MBC (Pseudomonas aeruginosa): 100 µg/mL (≈ 267 µM)
- MIC (Pseudomonas aeruginosa): 50 µg/mL (≈ 134 µM)
- GI50 (Hs-578T): 3.1 µM
- TGI (Hs-578T): > 100 µM
- CC50 (Hs-578T; [5]): > 100 µM
- GI50 (OVCAR-4): 20.6 µM
- TGI (OVCAR-4): > 100 µM
- CC50 (OVCAR-4; [5]): > 100 µM
- GI50 (NCI-H522): 4.07 µM
- TGI (NCI-H522): > 100 µM
- CC50 (NCI-H522; [5]): > 100 µM
- GI50 (DU-145): 19.1 µM
- TGI (DU-145): > 100 µM
- CC50 (DU-145; [5]): > 100 µM
- inhibition of growth at 10 µM (HCT-116): 70.4%
- GI50 (T47D): 4.5 µM
- TGI (T47D): > 100 µM
- CC50 (T47D; [5]): > 100 µM
- GI50 (A549): 9.07 µM
- TGI (A549): > 100 µM
- CC50 (A549; [5]): > 100 µM
- inhibition of growth at 10 µM (SNB-19 [4]): 48.8%
- GI50 (ACHN): 23.8 µM
- TGI (ACHN): > 100 µM
- CC50 (ACHN; [5]): > 100 µM
- GI50 (OVCAR-3): 3.34 µM
- LC50 (OVCAR-3): > 100 µM
- TGI (OVCAR-3): 21.4 µM
- GI50 (SR): 4.56 µM
- TGI (SR): > 100 µM
- CC50 (SR; [5]): > 100 µM
- inhibition of growth at 10 µM (U-251): 46.7%
- GI50 (SK-MEL-28): 11.1 µM
- LC50 (concentration killing 50% of cells) (SK-MEL-28): > 100 µM
- TGI (SK-MEL-28): > 100 µM
- GI50 (K562): 4.95 µM
- TGI (K562): > 100 µM
- CC50 (K562; [5]): > 100 µM
- inhibition of growth at 10 µM (MDA-MB-468): 61.2%

Reference: ChEMBL document CHEMBL3046389, “Synthesis and biological evaluation of novel hydroquinone dimethyl ethers as potential anticancer and antimicrobial agents” (2013)
